Tests used:
Assay type in all cases: in vivo
Leptosphaeria nodorum = experiment: Control of Leptosphaeria nodorum on sprayed winter wheat, assessed 33 days after application; settings: spray, vs untreated, average of 4 replicates
Description: Winter wheat was sprayed with cyprodinil, PBO and mixtures of the two. Thirty three days after application the winter wheat was assessed for levels of Leptosphaeria nodorum compared with untreated cereal, whereby the level of control could be calculated. Results (average of 4 replicates) are shown below.

Erysiphe graminis = experiment: Control of Erysiphe graminis infection on sprayed winter wheat, assessed after 30 days; settings: spray, average of 4 replicates
Description: Winter wheat was sprayed with cyprodinil, PBO and mixtures of the two. Thirty three days after application the winter wheat was assessed for levels of Leptosphaeria nodorum compared with untreated cereal, whereby the level of control could be calculated. Results (average of 4 replicates) are shown below. In a similar experiment levels of Erysiphe graminis infection were determined after 30 days. Results (average of 4 replicates) are shown below.

[1] = test system: Leptosphaeria nodorum and Septoria tritici mixed infection; experiment: Control of Leptosphaeria nodorum and Septoria tritici mixed infection on sprayed winter wheat, assessed 23 days after application; settings: spray, average of 4 replicates
Description: Winter wheat was sprayed with cyprodinil, PBO and mixtures of the two. Thirty three days after application the winter wheat was assessed for levels of Leptosphaeria nodorum compared with untreated cereal, whereby the level of control could be calculated. Results (average of 4 replicates) are shown below. In a similar experiment, levels of Leptosphaeria nodorum and Septoria tritici mixed infection were assessed 23 days after application. Results (average of 4 replicates) are shown below.

Elysiphe graminis = experiment: Control of Elysiphe graminis infection on sprayed winter wheat, assessed after 14 days; settings: spray, average of 3 replicates
Description: Winter wheat was sprayed with cyprodinil, PBO and mixtures of the two. Thirty three days after application the winter wheat was assessed for levels of Leptosphaeria nodorum compared with untreated cereal, whereby the level of control could be calculated. Results (average of 4 replicates) are shown below. In a similar experiment levels of […] graminis infection were determined after 14 days. Results (average of 3 replicates) are shown below.

Cc1cc(C2CC2)nc(Nc2ccccc2)n1 [cyprodinil]
% control (Leptosphaeria nodorum; 600 g ai / ha): 23.1% | % control (Erysiphe graminis; 600 g ai / ha): 34.4% | % control ([1]; 600 g ai / ha): 0.0% | % control (Elysiphe graminis; 150 g ai/ha): 35% | % control (Elysiphe graminis; 300 g ai/ha): 67% | % control (Elysiphe graminis; 600 g ai/ha): 98%

CCCCOCCOCCOCc1cc2c(cc1CCC)OCO2 [PBO, piperonyl butoxide]
% control (Leptosphaeria nodorum; 300 g ai / ha): 0.0% | % control (Erysiphe graminis; 300 g ai / ha): 0.0% | % control ([1]; 300 g ai / ha): 0.0% | % control (Elysiphe graminis; 300 g ai/ha): 0.0%
